Reference: the NIST ThermoML archive (doi:10.1016/j.tca.2011.11.036)
Numbers after ± are expanded uncertainties.

Assay: molar heat capacity at constant pressure; xn = mol fraction of the nth substance listed
Settings: 101 kPa, Liquid, Small sample (50 mg) DSC

NC(N)=O [urea] + C[N+](C)(C)CCO.[Cl-]
x2 = 0.3333
Settings	molar heat capacity at constant pressure [J/K/mol]
303.15 K	181.4 ± 2.8
308.15 K	182.2 ± 2.8
313.15 K	183.2 ± 2.8
318.15 K	183.5 ± 2.8
323.15 K	184.5 ± 2.9
328.15 K	185.3 ± 2.9
333.15 K	186.4 ± 2.9
338.15 K	187.4 ± 2.9
343.15 K	188.5 ± 3
348.15 K	189.5 ± 2.9
353.15 K	190.8 ± 3.1

C[N+](C)(C)CCO.[Cl-] [choline chloride] + OCC(O)CO
x1 = 0.3333
Settings	molar heat capacity at constant pressure [J/K/mol]
303.15 K	237.7 ± 3.7
308.15 K	239.1 ± 3.7
313.15 K	240.8 ± 3.7
318.15 K	241.9 ± 3.7
323.15 K	243.5 ± 3.8
328.15 K	244.9 ± 3.8
333.15 K	246.9 ± 3.8
338.15 K	248.4 ± 3.8
343.15 K	250.3 ± 3.9
348.15 K	252.1 ± 3.9
353.15 K	254.3 ± 3.9

C[N+](C)(C)CCO.[Cl-] [choline chloride] + OCCO
x1 = 0.3333
Settings	molar heat capacity at constant pressure [J/K/mol]
303.15 K	190.8 ± 3
308.15 K	192.2 ± 3
313.15 K	194 ± 3
318.15 K	194.9 ± 3
323.15 K	196.4 ± 3
328.15 K	197.6 ± 3.1
333.15 K	199.2 ± 3.1
338.15 K	200.6 ± 3.1
343.15 K	202.1 ± 3.1
348.15 K	203.9 ± 3.2
353.15 K	205.6 ± 3.2
